Data reported in patent publication US20160168140A1, “HETEROCYCLIC COMPOUNDS AS ANTIBIOTIC POTENTIATORS” (priority 2014, published 2016).

Test system: Acinetobacter baumannii (Ab23)
Assay: MIC shift assay of antibiotics (broth microdilution)
Type: cell-based
Conditions: fold shift of colistin MIC, nc = no changeover or no shift
Description: Minimum inhibitory concentration (MIC) shift assays were performed to determine if the test compounds could alter the MIC of existing antibacterial drugs (e.g., ciprofloxacin and colistin) for E. coli, Acinetobacter baumannii, Klebsiella pneumoniae, Pseudomonas aeruginosa, and Enterobacter cloacae. The MIC shift assay is based on the standard broth microdilution MIC determination protocol of Wiegand et al, Nat Protoc. 3(2):163-75 (2008), with slight modifications that allow for the screening of up to seven test compounds in a single plate.
On the day before an assay, bacteria were grown overnight in cation-adjusted Mueller Hinton broth (CAMHB; Teknova, Hollister, Calif.) at 37° C. in an orbital shaker and sub-cultured at a 1:200 dilution the following morning. The cells were grown to OD600=0.5 to 0.8 and then diluted to OD600=0.01. From a serial dilution of each antibiotic at (50 μL of 2× concentrated stock solutions) several concentrations were added to the wells of a sterile, transparent round-bottom 96-well plate (Phenix Research Products, Candler, N.C.), and diluted cells (50 μL) were added to the plates for a starting OD600 of 0.005. […] A row of wells lacking test compound but containing the antibiotic was used to determine the MIC of that antibiotic alone. A column of wells lacking both antibiotic and test compound served as a growth control, and an additional column containing only CAMHB was included as a sterile blank control.
The plates were incubated for 18 to 20 h at 37° C. in an orbital shaker, and the cell density (OD600) was determined the following day in a microplate reader (PolarStar Optima, BMG Labtech). The MIC shift was determined by comparing the MIC of the antibiotic alone to the MIC of the antibiotic plus test compound.

colistin MIC shift, Ab23 at (compd concentration) (compound concentration 4 μM) | Compound | also measured
16 x | Clc1ccc(NCc2c[nH]c3ccc(Br)cc23)cc1Cl [compound 418] | –
8x | Fc1ccc2c(/C=C/c3cccc(C(F)(F)F)c3)c[nH]c2c1 [compound 396] | –
16x | CN(C)CCCNc1nc(/C=C/c2cc(Cl)ccc2Cl)nc2c(C(F)(F)F)cccc12 [compound 335] | –
– | Cc1cccc2c(NCCCN(C)C)nc(-c3cc(-c4cncs4)cc(C(F)(F)F)c3)nc12 [compound 346] | colistin MIC shift, Ab23 at (compd concentration) (compound concentration 2 μM): 8-16x
– | FC(F)(F)c1ccc2[nH]nc(-c3ccc(Cl)c(Cl)c3)c2c1 [compound 555] | colistin MIC shift, Ab23 at (compd concentration) (compound concentration 10 μM): 32x
8x | O=[N+]([O-])c1ccc2[nH]cc(/C=C\c3ccc(Cl)c(Cl)c3)c2c1 [compound 380] | –
– | CNCCCN(C)c1nc(-c2cc(-c3ccccc3)cc(C(F)(F)F)c2)nc2c(C)cccc12 [compound 349] | colistin MIC shift, Ab23 at (compd concentration) (compound concentration 2 μM): 8-16x
8-16x | CCN(CC)CCCC(C)Nc1nc(-c2cccc(-c3cccc(C(F)(F)F)c3)c2)nc2c(C)cccc12 (stereo not shown) [compound 465] | –
16x | Clc1ccc(/C=C/c2c[nH]c3cc(Cl)c(Cl)cc23)cc1Cl [compound 374] | –
16-32x | Cc1cccc2c(NCCCN(C)C)nc(-c3cccc(-c4ccc(Cl)c(Cl)c4)c3)nc12 [compound 468] | –
16x | Fc1ccc2c(/C=C/c3ccc(C(F)(F)F)c(Cl)c3)c[nH]c2c1 [compound 393] | –
8x | CCN(CC)CCCC(C)Nc1nc(-c2cccc(-c3ccc(C(F)(F)F)cc3F)c2)nc2c(C)cccc12 (stereo not shown) [compound 471] | –
2x | N#Cc1ccc2[nH]cc(/C=C/c3ccc(Cl)c(Cl)c3)c2c1 [compound 375] | –
32x | CN(C)CCCNc1nc(-c2cccc(-c3cc(F)cc(C(F)(F)F)c3)c2)nc2c(Cl)cccc12 [compound 491] | –
8x | CCN(CC)CCCC(C)Nc1nc(/C=C/c2ccc(Cl)c(Cl)c2)nc2c(C)cccc12 (stereo not shown) [compound 313] | –
16x | Fc1ccc2c(/C=C/c3cc(Cl)cc(Cl)c3)c[nH]c2c1 [compound 388] | –
16-32x | Fc1ccc2c(/C=C/c3ccc(Cl)c(Cl)c3)c[nH]c2c1 [compound 366] | –
2x | CCN(CC)CCCC(C)Nc1nc(/C=C/c2ccc(Cl)c(Cl)c2)nc2c(Cl)cccc12 (racemic) [compound 320] | –
4x | CCN(CC)CCCC(C)Nc1nc(/C=C/c2ccc3ccccc3c2)nc2cc(Cl)ccc12 (racemic) [compound 305] | –

colistin MIC shift, Ab23 at (compd concentration) (compound concentration 4 μM) | Compound | also measured
– | COc1cc(-c2n[nH]c3cc(C(F)(F)F)ccc23)cc(C(F)(F)F)c1 [compound 552] | colistin MIC shift, Ab23 at (compd concentration) (compound concentration 10 μM): 8x
8x | CCN(CC)CCCC(C)Nc1nc(-c2cccc(-c3ccccc3)c2)nc2cc(C(F)(F)F)ccc12 (stereo not shown) [compound 479] | –
4x | CCN(CC)CCCC(C)Nc1nc(-c2cn(Cc3ccccc3)c3c(Cl)cccc23)nc2c(Br)cccc12 (racemic) [compound 568] | –
8x | COc1ccc2c(NCCCN(C)C)nc(/C=C/c3ccc(Cl)c(Cl)c3)nc2c1C [335a] | –
– | FC(F)(F)c1cccc(-c2n[nH]c3cc(C(F)(F)F)ccc23)c1 [compound 536] | colistin MIC shift, Ab23 at (compd concentration) (compound concentration 10 μM): 16x
128x | Cc1cccc2c(NCCCN)nc(-c3cc(Br)cc(C(F)(F)F)c3)nc12 [524a] | –
8x | Fc1ccc2c(/C=C/c3ccc(OC(F)(F)F)cc3)c[nH]c2c1 [compound 394] | –
8-16x | Cc1cccc2c(NCCCN(C)C)nc(-c3cc(Br)c4ccccc4c3)nc12 [compound 446] | –
4-8x | CCN(CC)CCCC(C)Nc1nc(-c2cccc(-c3cc(F)cc(C(F)(F)F)c3)c2)nc2c(C)cccc12 (stereo not shown) [compound 475] | –
– | Clc1cccc(Cn2nc(-c3cccc(-c4ccccc4)c3)c3cc(Cl)ccc32)c1 [compound 533] | colistin MIC shift, Ab23 at (compd concentration) (compound concentration 10 μM): 1x
– | CN(C)CCCNc1nc(-c2cccc(-c3ccccc3Cl)c2)nc2c(Cl)cccc12 [compound 351] | colistin MIC shift, Ab23 at (compd concentration) (compound concentration 2 μM): 8-16x
– | FC(F)(F)c1ccc2c(-c3cccc(-c4ccc(Cl)c(Cl)c4)c3)n[nH]c2c1 [compound 527] | colistin MIC shift, Ab23 at (compd concentration) (compound concentration 10 μM): 8x
16x | CCN(CC)CCCC(C)Nc1nc(-c2cc(-c3ccc(C(F)(F)F)cc3)cc(C(F)(F)F)c2)nc2c(C)cccc12 (stereo not shown) [compound 495] | –
16x | FC(F)(F)c1ccc2c(-c3ccc(Cl)c(Cl)c3)nn(Cc3ccc(Cl)cc3)c2c1 [compound 391, 1-(4-chlorobenzyl)-3-(3,4-dichlorophenyl)-6-(trifluoromethyl)-1H-indazole] | –
8x | CN(C)CCCNc1nc(-c2cn(Cc3ccccc3)c3c(Cl)cccc23)nc2c(Br)cccc12 [compound 569] | –
16-64x | CN(C)CCCn1cc(/C=C/c2ccc(Cl)c(Cl)c2)c2cc(Br)ccc21 [compound 356] | –
4x | CCN(CC)CCCC(C)Nc1nc(-c2cn(Cc3ccc(C)cc3)c3c(Cl)cccc23)nc2c(C)cccc12 (racemic) [compound 572] | –
32x | CN(C)CCCNc1nc(-c2cccc(-c3cc(C(F)(F)F)ccc3F)c2)nc2cc(C(F)(F)F)ccc12 [compound 482] | –
– | Clc1ccc2[nH]nc(-c3cccc(-c4ccc(Cl)c(Cl)c4)c3)c2c1 [compound 532] | colistin MIC shift, Ab23 at (compd concentration) (compound concentration 10 μM): 4x

colistin MIC shift, Ab23 at (compd concentration) (compound concentration 4 μM) | Compound | also measured
4x | CNCCCNc1nc(-c2cccc(-c3cccc(C(F)(F)F)c3)c2)nc2c(C)cccc12 [compound 478] | –
– | Clc1ccc(-c2n[nH]c3cc(Br)ccc23)cc1Cl [compound 559] | colistin MIC shift, Ab23 at (compd concentration) (compound concentration 10 μM): 8x
2x | CCN(CC)CCCC(C)Nc1nc(/C=C/c2ccc(Cl)c(Cl)c2)nc2c(F)cccc12 (racemic) [compound 319] | –
– | CCN(CC)CCCC(C)Nc1nc(/C=C/c2ccc(Cl)c(Cl)c2)nc2cc(F)c(F)cc12 (racemic) [compound 321] | colistin MIC shift, Ab23 at (compd concentration) (compound concentration 10 μM): 8x
– | O=C(Nc1ccc(Cl)c(Cl)c1)c1c[nH]c2ccc(Br)cc12 [compound 420] | colistin MIC shift, Ab23 at (compd concentration) (compound concentration 2 μM): 16x
4x | CN(C)CCCNc1nc(-c2cn(Cc3ccccc3)c3c(Cl)cccc23)nc2c(-c3ccncc3)cccc12 [compound 571] | –
– | CNCCCN(C)c1nc(-c2cccc(-c3cc(F)cc(C(F)(F)F)c3)c2)nc2c(Cl)cccc12 [compound 350] | colistin MIC shift, Ab23 at (compd concentration) (compound concentration 2 μM): 8-16x
32x | Cc1cccc2c(NCCCN(C)C)nc(-c3cc(-c4ccccc4Cl)cc(C(F)(F)F)c3)nc12 [compound 513] | –
2x | Cc1cccc2c(NCCCN(C)C)nc(-c3cc(-c4cncnc4)cc(C(F)(F)F)c3)nc12 [524c] | –
– | Fc1cc(-c2n[nH]c3cc(C(F)(F)F)ccc23)ccc1C(F)(F)F [compound 546] | colistin MIC shift, Ab23 at (compd concentration) (compound concentration 10 μM): 1x
2x | CCN(CC)CCCC(C)Nc1nc(/C=C/c2ccc(Cl)c(Cl)c2)nc2ccc(Br)cc12 (racemic) [compound 318] | –
4x | CCN(CC)CCCC(C)Nc1nc(/C=C/c2ccc(Cl)c(Cl)c2)nc2cc(Cl)ccc12 (racemic) [compound 325] | –
16x | Cc1cccc2c(NCCCN(C)C)nc(-c3cc(-c4cccc(C(F)(F)F)c4)cc(C(F)(F)F)c3)nc12 [compound 494] | –
4-8x | CN1CCN(CCn2cc(/C=C/c3ccc(Cl)c(Cl)c3)c3ccc(F)cc32)CC1 [compound 357] | –
– | CCN(CC)CCCC(C)Nc1nc(-c2cc(Br)c3ccccc3c2)nc2c(C)cccc12 (stereo not shown) [compound 445] | colistin MIC shift, Ab23 at (compd concentration) (compound concentration 8 μM): 16x
8x | CCN(CC)CCCC(C)Nc1nc(-c2cn(Cc3ccccc3)c3c(Cl)cccc23)nc2cc(Cl)ccc12 (racemic) [compound 584] | –
2x | FC(F)(F)c1cccc(-c2ccc3[nH]cc(-c4ccc(Cl)c(Cl)c4)c3c2)c1 [compound 438] | –
– | FC(F)(F)c1ccc2c(-c3ccccc3C(F)(F)F)n[nH]c2c1 [compound 547] | colistin MIC shift, Ab23 at (compd concentration) (compound concentration 10 μM): 1x
1x | FC(F)(F)c1ccc2c(-c3cccc(Cl)c3Cl)n[nH]c2c1 [compound 543] | –

Compound | colistin MIC shift, Ab23 at (compd concentration) (compound concentration 4 μM) | also measured
(S)-2-amino-1-(5-chloro-3-(3,4-dichlorophenyl)-1H-indol-1-yl)butan-1-one methanesulfonate salt [compound 460] | 32x | –
